This note sets out measurements from ChEMBL document CHEMBL1133068, “Novel 2,2-dioxide-4,4-disubstituted-1,3-H-2,1,3-benzothiadiazines as non-nucleoside reverse transcriptase inhibitors” (Bioorg Med Chem Lett, 2000).

Test [1] concerns the target T1, Human immunodeficiency virus type 1 reverse transcriptase (Human immunodeficiency virus 1, UniProt Q72547). Description: The compound was evaluated for the inhibition of HIV-1 reverse transcriptase.
Test [2] can be described thus: The compound was evaluated for antiviral activity using whole cell assay. The test is classed as functional.
A short description of test [3]: The compound was evaluated for antiviral activity using whole cell assay; Inactive. The test is classed as functional.
Test [4] addresses T1, Human immunodeficiency virus type 1 reverse transcriptase. Description: The compound was evaluated for the inhibition of HIV-1 reverse transcriptase; Inactive.

The structures appear in SMILES notation. Counter-ions that a name gives are not always drawn. Calls of active or inactive are those of the source. The rule behind the calls is not given here.

On to `O=C1Nc2ccc(Cl)cc2[C@@](C#CC2CC2)(C(F)(F)F)N1`, for which the IC50 in test [1] was 0.031 µM. The IC90 in test [2] is 2 nM.
As for `O=S1(=O)Nc2ccc(Cl)cc2C(C#Cc2ccccc2)(C2CC2)N1` (stereo not drawn), the IC90 result in test [3] is “inactive”. Also, in test [4], the IC50 result is given as “Not Active”.
In test [2], `Cc1ccnc2c1NC(=O)c1cccnc1N2C1CC1` [NEVIRAPINE] displayed an IC90 of 37 nM.
Molecule `CC(C)C#CC1(C(C)C)NS(=O)(=O)Nc2ccc(Cl)cc21` (stereo not drawn) registered an IC50 in test [1] of 0.137 µM. Also, it took 643 nM to reach the 90% level in test [2] (IC90).
In the case of `O=C1Nc2ccc(Cl)cc2[C@@](C#CC2CC2)(C(F)(F)F)O1` [EFAVIRENZ], it took 1.7 nM to reach the 90% level in test [2] (IC90).
Still for that read-out and setting: then `CC(C)Nc1cccnc1N1CCN(C(=O)c2cc3cc(NS(C)(=O)=O)ccc3[nH]2)CC1` [DELAVIRDINE MESYLATE], with 50 nM.
`O=S1(=O)Nc2ccc(F)c(F)c2C(C#CC2CC2)(C(F)(F)F)N1` (stereo not drawn): the IC50 in test [1] was 24.7 µM. Further, in test [2], it took 284 nM to reach the 90% level (IC90).
Take `CC(C)C1(C#CC2CC2)NS(=O)(=O)Nc2ccc(Cl)cc21` (stereo not drawn): the concentration for half-maximal inhibition (IC50) entry in test [4] is recorded as “Not Active”. Further, the IC90 in test [2] amounted to 677 nM.
The corresponding values for `CCC#CC1(C(C)C)NS(=O)(=O)Nc2ccc(Cl)cc21` (stereo not drawn) are “Not Active” and 961 nM.
For the molecule `CC(C)C#CC1(C2CC2)NS(=O)(=O)Nc2ccc(Cl)cc21` (stereo not drawn), the IC50 in test [1] was found to be 4.63 µM. This molecule also displayed an IC90 in test [2] of 182 nM.
The corresponding values for `O=S1(=O)Nc2ccc(Cl)cc2C(C#CC2CC2)(C2CC2)N1` (stereo not drawn) are 35.9 µM and 279 nM.
In the case of `CCC#CC1(C2CC2)NS(=O)(=O)Nc2ccc(Cl)cc21` (stereo not drawn), in test [4], the IC50 result is recorded as “Not Active”. In test [2], this molecule gave an IC90 of 611 nM.
With `O=S1(=O)Nc2ccc(Cl)cc2C(C#Cc2ccccn2)(C2CC2)N1` (stereo not drawn), the IC90 result in test [3] was “inactive”. The IC50 entry in test [4] is given as “Not Active”.
